Measured values as given in patent publication US20240217947A1, “Morpholinylquinazoline Compound, Pharmaceutical compositions thereof and Use Thereof” (SHANGHAI YINGLI PHARMACEUTICAL CO., LTD, priority 2022, published 2024).

How the values were obtained:
Type in all cases: biochemical
[1] = target: HDAC2 (Homo sapiens, UniProt Q92769); experiment: HDAC2 enzyme activity inhibition IC50 evaluation experiment; settings: HDAC2 4 nM, acetylated peptide 10 μM, trypsin, fluorescence
Method: (§1) Effect Example 2 HDAC1, HDAC2, HDAC3, HDAC6 enzyme activity inhibition IC50 evaluation experiment
(§2) Buffer solution (50 mM Tris 7.5, 0.01% Tween-20, 50 mM NaCl) was prepared according to the kit instructions, and the enzyme solution and substrate solution (acetylated peptide with the addition of trypsin) were prepared using the buffer solution. The test compound samples were dissolved with DMSO and added to the screening system at a certain starting concentration such as 10 μM, 3-fold dilution, while setting up a DMSO control and no-enzyme control. The enzyme reaction system includes: buffer, enzyme [final concentration: HDAC1=10 nM, HDAC2=4 nM, HDAC3=7 nM, HDAC6=5 nM], substrate (acetylated peptide) [final concentration: Peptide(HDAC1)=8 μM, Peptide(HDAC2)=10 μM, Peptide(HDAC3)=5 μM, Peptide(HDAC6)=11 μM], trypsin [final concentration: Trypsin(HDAC1,2,3)=0.05 μM, Trypsin(HDAC6)=0.1 μM], etc. The enzymes and compounds were reacted at room temperature for 15 min. After adding the substrate and Trypsin, centrifugation was performed for 1 min, and the fluorescence signal data (excitation wavelength 355 nM/emission wavelength 460 nm) was read continuously for 60 min using Envision, and the linear reaction segment was selected to obtain the slope and thus calculate the inhibition rate at that concentration. The IC50 value was obtained by fitting the curve using the formula Y=Bottom+(Top-Bottom)/(1+(IC50/X)^HillSlope).

[2] = target: T1, HDAC6 (Homo sapiens, UniProt Q9UBN7); experiment: HDAC6 enzyme activity inhibition IC50 evaluation experiment; settings: HDAC6 5 nM, acetylated peptide 11 μM, trypsin, fluorescence
T1 sequence (Q9UBN7 1-1215): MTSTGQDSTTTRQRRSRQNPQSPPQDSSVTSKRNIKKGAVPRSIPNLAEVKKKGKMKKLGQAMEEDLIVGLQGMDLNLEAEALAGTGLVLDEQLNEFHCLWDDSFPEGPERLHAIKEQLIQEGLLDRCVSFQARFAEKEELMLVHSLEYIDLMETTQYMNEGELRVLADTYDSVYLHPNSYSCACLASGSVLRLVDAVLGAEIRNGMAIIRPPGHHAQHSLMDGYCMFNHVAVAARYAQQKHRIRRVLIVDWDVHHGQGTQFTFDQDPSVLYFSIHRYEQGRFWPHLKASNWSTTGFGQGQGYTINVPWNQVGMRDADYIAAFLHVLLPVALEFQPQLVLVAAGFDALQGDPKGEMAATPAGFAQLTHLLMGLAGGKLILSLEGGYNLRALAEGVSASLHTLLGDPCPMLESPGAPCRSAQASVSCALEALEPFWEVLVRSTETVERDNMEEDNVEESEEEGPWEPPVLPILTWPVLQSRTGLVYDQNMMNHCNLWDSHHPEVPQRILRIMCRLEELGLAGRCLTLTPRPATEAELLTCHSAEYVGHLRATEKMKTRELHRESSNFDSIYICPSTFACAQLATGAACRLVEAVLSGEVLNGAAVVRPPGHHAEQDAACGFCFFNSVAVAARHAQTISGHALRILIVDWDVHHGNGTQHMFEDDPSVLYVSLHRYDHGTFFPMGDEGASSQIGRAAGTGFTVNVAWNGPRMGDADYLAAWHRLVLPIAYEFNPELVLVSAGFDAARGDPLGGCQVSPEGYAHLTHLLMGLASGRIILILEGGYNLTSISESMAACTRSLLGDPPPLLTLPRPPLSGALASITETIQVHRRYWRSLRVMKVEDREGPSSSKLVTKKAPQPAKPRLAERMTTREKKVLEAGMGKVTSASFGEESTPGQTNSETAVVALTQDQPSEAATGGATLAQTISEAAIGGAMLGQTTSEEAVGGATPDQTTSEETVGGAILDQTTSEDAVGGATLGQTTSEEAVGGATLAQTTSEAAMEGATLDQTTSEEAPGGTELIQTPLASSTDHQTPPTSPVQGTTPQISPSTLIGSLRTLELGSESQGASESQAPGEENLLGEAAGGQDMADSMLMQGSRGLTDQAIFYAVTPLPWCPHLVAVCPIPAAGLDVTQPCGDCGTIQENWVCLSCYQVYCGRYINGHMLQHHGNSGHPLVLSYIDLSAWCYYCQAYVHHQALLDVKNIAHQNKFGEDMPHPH
Method: as §1, §2

[3] = target: PI3Kδ (Homo sapiens, UniProt O00329); experiment: PI3Kδ enzyme activity inhibition IC50 evaluation assay (ADP-Glo Kinase Assay); settings: ATP 25 μM, PIP2 50 μg/mL, 1 hour room temperature, read-out: PI3K-δ IC50
Sequence of PI3Kδ (O00329 whole entry, species assumed): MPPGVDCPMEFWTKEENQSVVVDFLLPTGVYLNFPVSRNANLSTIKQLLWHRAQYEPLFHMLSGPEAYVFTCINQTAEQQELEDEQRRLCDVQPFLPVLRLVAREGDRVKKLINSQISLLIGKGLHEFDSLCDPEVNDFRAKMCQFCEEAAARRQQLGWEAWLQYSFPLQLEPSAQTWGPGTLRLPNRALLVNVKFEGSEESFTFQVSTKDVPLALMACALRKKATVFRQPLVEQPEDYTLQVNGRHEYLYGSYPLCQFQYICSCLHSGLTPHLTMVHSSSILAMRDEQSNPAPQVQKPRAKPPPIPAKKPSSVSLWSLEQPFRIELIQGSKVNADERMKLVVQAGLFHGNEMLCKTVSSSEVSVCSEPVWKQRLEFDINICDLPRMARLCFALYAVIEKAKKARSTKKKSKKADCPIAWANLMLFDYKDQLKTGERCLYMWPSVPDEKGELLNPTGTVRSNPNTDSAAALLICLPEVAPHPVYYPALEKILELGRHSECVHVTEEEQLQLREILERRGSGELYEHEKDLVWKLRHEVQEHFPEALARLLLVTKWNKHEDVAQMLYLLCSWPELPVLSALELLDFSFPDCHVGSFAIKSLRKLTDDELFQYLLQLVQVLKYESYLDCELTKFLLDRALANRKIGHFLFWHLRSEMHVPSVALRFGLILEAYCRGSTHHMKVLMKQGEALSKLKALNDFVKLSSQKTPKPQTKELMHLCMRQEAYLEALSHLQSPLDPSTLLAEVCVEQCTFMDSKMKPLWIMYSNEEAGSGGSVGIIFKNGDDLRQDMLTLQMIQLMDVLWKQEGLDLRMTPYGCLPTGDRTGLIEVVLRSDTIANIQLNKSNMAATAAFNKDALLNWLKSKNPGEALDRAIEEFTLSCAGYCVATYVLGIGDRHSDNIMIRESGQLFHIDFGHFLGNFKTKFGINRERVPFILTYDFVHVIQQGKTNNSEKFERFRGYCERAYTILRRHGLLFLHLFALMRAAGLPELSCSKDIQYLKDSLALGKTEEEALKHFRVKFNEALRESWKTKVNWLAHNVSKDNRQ
Sequence of PI3Kδ (P27986 whole entry partner, species assumed): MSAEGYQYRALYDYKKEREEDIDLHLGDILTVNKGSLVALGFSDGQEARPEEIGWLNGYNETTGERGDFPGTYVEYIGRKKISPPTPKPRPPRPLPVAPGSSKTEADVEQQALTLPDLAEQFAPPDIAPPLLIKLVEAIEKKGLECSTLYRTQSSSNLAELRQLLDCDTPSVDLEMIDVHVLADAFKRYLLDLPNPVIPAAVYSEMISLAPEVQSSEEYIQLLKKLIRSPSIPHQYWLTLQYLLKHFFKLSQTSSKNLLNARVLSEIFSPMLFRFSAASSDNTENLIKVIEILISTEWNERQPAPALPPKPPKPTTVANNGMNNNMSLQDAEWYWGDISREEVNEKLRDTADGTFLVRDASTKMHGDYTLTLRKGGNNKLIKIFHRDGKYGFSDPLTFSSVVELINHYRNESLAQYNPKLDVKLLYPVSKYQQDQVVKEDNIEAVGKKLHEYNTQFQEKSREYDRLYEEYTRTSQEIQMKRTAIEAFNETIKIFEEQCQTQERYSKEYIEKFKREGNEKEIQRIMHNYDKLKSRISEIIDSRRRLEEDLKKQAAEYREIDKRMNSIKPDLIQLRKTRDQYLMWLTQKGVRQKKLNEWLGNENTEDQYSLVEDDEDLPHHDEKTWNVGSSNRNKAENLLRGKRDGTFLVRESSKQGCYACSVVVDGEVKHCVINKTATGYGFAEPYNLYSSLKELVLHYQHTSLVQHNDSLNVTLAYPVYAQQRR
Method: Effec Example 1 IC50 evaluation assay for PI3Kα, PI3Kδ, PI3Kβ and PI3Kγ enzyme activity inhibition
The experiment was performed using the ADP-Glo Kinase Assay kit, following the instructions. The following buffer solutions were prepared: 50 mM HEPES, pH 7.5, 3 mM MgCl2, 1 mM EGTA, 100 mM NaCl, 0.03% CHAPS, 2 mM DTT. The test compound samples were dissolved in DMSO and added to the screening system at a certain starting concentration such as 10 μM, 3-fold dilution, while setting up both DMSO control and no kinase control. The optimal concentrations of PI3Kα, PI3Kδ, PI3Kβ and PI3Kγ enzymes, substrate (PIP2) and ATP were prepared in buffer. The enzyme reaction system included: buffer, ATP 25 μM, kinase substrate (PIP2, 50 μg/mL), kinases [PI3Kα (0.15 μg/mL), PI3Kδ (1.2 μg/mL), PI3Kβ (0.3 μg/mL) and PI3Kγ (2.5 μg/mL)], etc. The reaction system was reacted at room temperature for 1 hour. The reaction was terminated by adding a termination reagent (ADP-Glo reagent, 5 μL), and the ADP content in the system was detected using a detection reagent (Kinase Detection Reagent, 10 μL). Signal data were collected using the Envision instrument. Calculate the percentage of (%) inhibition according to the following formula: % inhibition=(DMSO control signal value−sample signal value)/(DMSO control signal value−no-kinase control signal value). The IC50 value was obtained by fitting the curve using the formula Y=Bottom+(Top-Bottom)/(1+(IC50/X)^HillSlope).

Sequence of HDAC2 (Q92769 whole entry, species assumed): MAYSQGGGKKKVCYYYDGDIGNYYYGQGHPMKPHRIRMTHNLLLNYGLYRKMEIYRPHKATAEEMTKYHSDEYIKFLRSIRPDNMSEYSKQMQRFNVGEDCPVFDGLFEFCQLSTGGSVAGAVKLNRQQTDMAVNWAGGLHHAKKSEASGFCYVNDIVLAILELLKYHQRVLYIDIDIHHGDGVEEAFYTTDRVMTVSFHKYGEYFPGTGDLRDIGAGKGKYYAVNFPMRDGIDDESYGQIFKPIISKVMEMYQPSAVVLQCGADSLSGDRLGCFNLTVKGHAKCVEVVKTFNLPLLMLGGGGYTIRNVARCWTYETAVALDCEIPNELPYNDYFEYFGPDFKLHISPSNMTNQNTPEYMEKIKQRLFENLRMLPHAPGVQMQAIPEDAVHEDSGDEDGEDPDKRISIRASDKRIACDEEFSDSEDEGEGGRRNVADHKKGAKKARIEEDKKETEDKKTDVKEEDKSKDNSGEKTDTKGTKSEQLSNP

How did the IC50 [1] turn out when `COc1ncc(-c2nc(N3CCOCC3)nc3c(OC4CCN(c5ccc(C(=O)NO)cn5)CC4)cc(F)cc23)cc1NS(C)(=O)=O` [Compound 40] was run?
Its IC50 is 0.1 to 1 µM.

What about the IC50 [2] of the same molecule?
Its IC50 is 0.01 to 0.1 µM.

What about the IC50 [3] of the same molecule?
The IC50 was no more than 0.01 µM.

Which results are given for `COc1ncc(-c2nc(N3CCOCC3)nc3c(OC4CCN(c5ncc(C(=O)NO)cn5)CC4)cc(F)cc23)cc1NS(C)(=O)=O` [Compound 39]?
IC50 [1]: 0.01 to 0.1 µM; IC50 [2]: 0.1 to 1 µM; IC50 [3]: ≤ 0.01 µM

For `COc1ncc(-c2nc(N3CCOCC3)nc3c(CN4CCN(c5ncc(C(=O)NO)cn5)CC4)cc(F)cc23)cc1NS(C)(=O)=O` [Compound 7], which IC50 [1] is on record?
Its IC50 is 0.01 to 0.1 µM.

What about the IC50 [2] of the same molecule?
Its IC50 is 0.01 to 0.1 µM.

What about the IC50 [3] of the same molecule?
Its IC50 is no more than 0.01 µM.

What does the source list for `COc1ncc(-c2nc(N3CCOCC3)nc3c(OCCCCCCC(=O)NO)cc(F)cc23)cc1NS(C)(=O)=O` [Compound 9]?
IC50 [1]: ≤ 0.01 µM; IC50 [2]: ≤ 0.01 µM; IC50 [3]: 0.01 to 0.1 µM

What does the source list for `COc1ncc(-c2nc(N3CCOCC3)nc3c(OC4CCN(c5ncc(C(=O)NO)cc5F)CC4)cc(F)cc23)cc1NS(C)(=O)=O` [Compound 30]?
IC50 [1]: 0.1 to 1 µM; IC50 [2]: 0.01 to 0.1 µM; IC50 [3]: 0.01 to 0.1 µM
